Several values for one entry are separate records, joined by “and”; a condition that tells them apart may be missing. Equal values may be shown once. Entries after “also recorded” stand apart in the source; their conditions may differ. Read-outs that look alike come from different tables or passages of the source. Where no end group is shown, it is not given here.

The subject of data set [1] is MDV strain RB1B. In kind it is cell-based, Marek's disease virus. The settings on record: for IC50: plaque formation, CEF cells, co-treatment: 100 pfu MDV incubated with peptide 2 hrs at 37°C, then 5 days in DMEM 2% FBS, triplicate, means ± SD, read-out: antiviral activity IC50; for virucidal activity (in words): virus pre-treatment: virus incubated with peptide at 25 μM for 1 hr at 37°C, then titrated on cell monolayers. The procedure: Primary chicken embryo fibroblasts (CEFs) were cultured as previously described. CEF-associated MDV strain RB1B,which was obtained from the Shandong Agriculture University and passaged multiple times in primary CEFs was incubated for 2 hrs at 37°C. Following incubation, the virus inoculum on the cells was replaced with DMEM supplemented with 2% FBS, and the cultures were incubated for another 5 days longer Consistent and uniform plaques were observed and counted using an Olympus microscope, and images were captured using DP Controller. CEF-associated MDV from the same passage at 2×10^4 plaque forming units (pfu) was used in both infectivity assays in this study.
All peptides were dissolved in DMEM without FBS and used at a range of concentrations. For the antiviral activities of peptides in the co-treatment assay, 100 pfu of MDV was incubated with the peptide at different concentrations for 2 hrs at 37°C. Following incubation, the virus-peptide mixtures on the cells were replaced with DMEM supplemented with 2% FBS, and the cultures were incubated for 5 days. At the end of this period, 50% inhibitory concentrations (IC50) values were calculated. […] For all treatments, unpenetrated virus was inactivated in a low pH buffer after the 45 min incubation with cells at 37°C. The monolayers were incubated for 5 days at 37°C in DMEM supplemented with 2% FBS. The ratio of plaque counts to the no peptide sample control is reported as the percentage of plaque formation (by arithmetic conversion of the mean percent plaque formation). The results are expressed as the average of triplicates ± the standard deviation, and all experiments were performed in parallel with each peptide and a non-specific peptide (i.e., scramble).

Data set [2] deals with MDV strain RB1B. The settings on record: cited from earlier work; for IC50: MDV plaque formation, previous study, read-out: 50% inhibitory concentration (IC50), plaque formation. The source says:
Our previous study reported that both glycoproteins gB and gH of the herpesvirus Marek's disease virus (MDV) contain eleven potential heptad repeat domains. […] HR1 and HR2 can form of a six-helix bundle structure, which is known as the virus fusion central core and is believed to bring the viral and cellular membranes closer together. […] This observation is in contrast with our results with MDV and other herpesviruses, [29], [33], in which three N-terminal HRs show ...

The conditions of data set [3]: individual peptides; previous study; cited from earlier work. The source says: In addition, the gBH1 peptide forms a homotrimeric structure with a molecular weight of 10.7 kDa. gHH3 adopts a monomer formation with a molecular weight of 3.8 kDa, and gHH1 forms a homotetramer with a molecular weight of approximately 12.1 kDa. Gel filtration was used to confirm the interactions between peptides. […] As show ...

Data set [4] addresses gH-derived HR3 peptide (gHH3) (Marek's disease virus strain RB1B).
Data set [5] shares this target. Put plainly: SEC.
Data set [6] shares this target. Put plainly: SEC. This is another data set of the same source.
The target in data set [7] is gB-derived HR1 peptide (gBH1) (Marek's disease virus strain RB1B). Nature of the data set: SEC.
Sequence of gB-derived HR1 peptide (gBH1) (Marek's disease virus strain RB1B) (P18538 340-367 limits assumed): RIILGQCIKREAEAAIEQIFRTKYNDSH

For the compound “EERKKLGEEIKKEAEEAKKQIEETKKNDEE [gHB1-EK]”, in data set [1], the IC50 was found to be 8.7 ± 1.29 µM.

Take HMNASDMEIKSYINMIESVEESSNYDF [gHH1]: in data set [1], the IC50 was 4.1 ± 0.26 µM and the “virucidal activity (in words)” value is on record as “no or low virucidal activity”. The IC50 in data set [2] was under 12 µM. Besides, in data set [2] (virus co-treatment (co) and post-treatment (post)), the “blocking of viral infection in co-treatment and post-treatment assays (in words)” value is reported as “blocked viral infection”. In data set [3], the “Molecular mass of individual peptide in solution by gel filtration” value (from here on “Molecular mass of individual peptide”) is “approximately 12.1 kDa and 12.1 kDa”; the “Molecular state of individual peptide” value is on record as “homotetramer; also recorded: Tetramer”.

Take “KKNEEIIKKLEEKTKKNEEKNKKSEEILKKLEELRKK [gHH3-EK]”: in data set [1], the IC50 was 6.3 ± 1.16 µM.

For “NADIIKSLIRKTIINASKNTASLSILQHLYVLRS [gHH3]”, in data set [1], the IC50 is 12.2 ± 0.28 µM and the “virucidal activity (in words)” value is “no or low virucidal activity”. Further, the IC50 in data set [2] was under 12 µM. In data set [3], the “Molecular mass of individual peptide” value is recorded as 3.8 kDa and the “Molecular state of individual peptide” value was “Monomer”.

As to gB-derived HR1 peptide (gBH1), the antiviral activity IC50 (plaque formation, MDV on CEF cells) of the mixture of the three peptides gHH1+gHH3+gBH1, the same level as gHH1 alone in data set [4] came to 4.7 µM. Further, the stoichiometry N in data set [5] is 1; in data set [6], 3.

For gH-derived HR1 peptide (gHH1), the stoichiometry N stood at 1 in data set [7], 3 in data set [5] and 1 in data set [6].

Take `CC[C@H](C)[C@H](NC(=O)[C@H](C)NC(=O)[C@H](C)NC(=O)[C@H](CCC(=O)O)NC(=O)[C@H](C)NC(=O)[C@H](CCC(=O)O)NC(=O)[C@H](CCCNC(=N)N)NC(=O)[C@H](CCCCN)NC(=O)[C@@H](NC(=O)[C@H](CS)NC(=O)[C@H](CCC(N)=O)NC(=O)CNC(=O)[C@H](CC(C)C)NC(=O)[C@@H](NC(=O)[C@@H](NC(=O)[C@@H](N)CCCNC(=N)N)[C@@H](C)CC)[C@@H](C)CC)[C@@H](C)CC)C(=O)N[C@@H](CCC(=O)O)C(=O)N[C@@H](CCC(N)=O)C(=O)N[C@H](C(=O)N[C@@H](Cc1ccccc1)C(=O)N[C@@H](CCCNC(=N)N)C(=O)N[C@H](C(=O)N[C@@H](CCCCN)C(=O)N[C@@H](Cc1ccc(O)cc1)C(=O)N[C@@H](CC(N)=O)C(=O)N[C@@H](CC(=O)O)C(=O)N[C@@H](CO)C(=O)N[C@@H](Cc1c[nH]cn1)C(=O)O)[C@@H](C)O)[C@@H](C)CC` [gBH1]: in data set [2], the IC50 is under 12 µM. In data set [3], the “Molecular mass of individual peptide” value was 10.7 kDa and the “Molecular state of individual peptide” value is “homotrimeric; also recorded: Trimer”.

Source of the values: article PMC3566115, “Interaction Domain of Glycoproteins gB and gH of Marek's Disease Virus and Identification of an Antiviral Peptide with Dual Functions” (PLoS ONE, 2013).
